Measurements reported in ChEMBL document CHEMBL4806958, “Anti-cancer/anti-fibrosis compounds” (2020).

Target: Casein kinase II subunit alpha (Homo sapiens, UniProt P68400)
Assay: Inhibition of CSNK2A1(unknown origin) using Ser/Thr 11 as substrate incubated for 60 mins in presence of ATP by Z'-LYTE assay

Casein kinase II subunit alpha, sequence (P68400 whole entry): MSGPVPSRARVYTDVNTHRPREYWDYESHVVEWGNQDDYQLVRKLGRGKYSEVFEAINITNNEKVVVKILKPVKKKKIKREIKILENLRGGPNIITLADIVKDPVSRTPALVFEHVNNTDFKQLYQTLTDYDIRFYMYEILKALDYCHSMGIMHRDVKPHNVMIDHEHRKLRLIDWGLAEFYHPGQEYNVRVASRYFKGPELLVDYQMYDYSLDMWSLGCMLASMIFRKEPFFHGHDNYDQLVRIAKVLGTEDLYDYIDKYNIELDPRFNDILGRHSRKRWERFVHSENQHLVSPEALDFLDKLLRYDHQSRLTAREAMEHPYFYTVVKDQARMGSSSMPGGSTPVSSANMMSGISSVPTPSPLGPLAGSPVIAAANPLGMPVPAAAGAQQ

SMILES	IC50 [nM]
CC(C)Nc1cc2cc(C(=O)O)ccc2c2cnccc12	< 300
O=C(O)c1ccc2c(c1)cc(NC1CCCC1)c1ccncc12	< 300
O=C(O)c1ccc2c(c1)cc(NC1CCCCC1)c1ccncc12	< 300
CCC(C)Nc1cc2cc(C(=O)O)ccc2c2cnccc12 (configuration not stated)	< 300
O=C(O)c1ccc2c(c1)cc(C1CC1)c1ccncc12	< 300
O=C(O)c1ccc2c(c1)cc(N1CCCCC1)c1ccncc12	< 300
O=C(O)c1ccc2c(c1)cc(-c1cc[nH]n1)c1ccncc12	< 300
